Source: patent US11045487B2, “Pharmaceutical preparation treating bone lesions caused by malignant neoplasms” (priority 2016, dated 2021)

Legend:
[1] = Thermal behaviour of solutions for lyophilization (DSC); format: physicochemical
Text: Differential Scanning calorimetry (DSC) was used to identify the lowest possible transient temperature in the solution throughout the entire lyophilization process, including freezing and dehydration. For the solutions of most pharmaceutical products, this parameter is represented by the glass transition temperature or “Tgt”. All components and their amounts in the solution contribute to the final value of Tgt. This temperature is usually several degrees below the temperature at which the sintered material can crumble during the lyophilization process (collapse temperature, Tc). Without determining the collapse temperature by such methods as cryomicroscopy, the glass transition temperature can be used to select the primary drying temperature. Until the primary drying is completed, the initial drying temperature should be set in such a manner that there are no vials for which the glass transition temperature has been exceeded (or Tc, if known). Otherwise, the structure of the sintered material may get broken. On the one hand, the lyophilization temperature should be close to Tgt, so that the process proceeds efficiently, and on the other hand, it cannot exceed Tgt due to process requirements and qualitative product parameters. Thus, the values of collapse and glass transition temperature are important parameters for calculating safe upper temperature limits, which can be used for lyophilization. Based on the proposed filling of the vials with the drug (100 mg of active ingredient per vial), potential solutions for filling were prepared. The excipients included sterile water for injection (SWFI), 50 mM succinate and tartrate buffers at pH 5, MgCl2, sulfobutylether β-cyclodextrin (SBEβCD), mannitol and dextran 40. In addition, for solutions containing mannitol, a study of the effect of the annealing stage (the lyophilization process stage when the samples are kept at a certain temperature below the freezing point for a certain period of time) on the improvement the crystallinity of the finished product was performed. […]

[2] = tested on: bone lesions caused by malignant neoplasms; assay: Phase I open non-randomized multicenter clinical study; format: in vivo; conditions: patients; intravenous infusion daily for 5 days, break of 23 days; on free acid basis
Experimental: To assess the efficacy and safety of the novel medicinal drug, clinical studies of phase I were conducted according to “Open non-randomized multicenter clinical study” protocol.
All patients received a single dosing with the study drug in a dose corresponding to the dose level of the cohort with the subsequent weekly follow-up period and at least 2 cycles of multiple dosing. The cycle consisted of daily administration (o.d.) of the drug for 5 days, followed by a break of 23 days. […] According to protocol criteria, the maximum tolerated dose is considered a dose 1 level lower than DLT (5 mg/kg).

[3] = Succinate buffer, MBC-11 25 mg/mL, MgCl2, 86.5 mmol/L
[4] = Tartrate buffer, MBC-11 25 mg/mL, MgCl2, 86.5 mmol/L

## CC(O)(P(=O)(O)O)P(=O)(O)OP(=O)(O)OC[C@H]1O[C@@H](n2ccc(N)nc2=O)[C@@H](O)[C@@H]1O.[Na].[Na].[Na] (stereo partly drawn) [MBC-11, Trisodium salt of 1-((((((2R,3S,4S,5R)-5-(4-amino-2-oxopyrimidine-1(2H)-yl)-3,4-dihydroxytetrahydrofuran-2-yl)methoxy))(hydroxy)phosphoryloxy)(hydroxy)phosphoryl)-1-hydroxyethylphosphonic acid]
[1]; SWFI, MBC-11 25 mg/mL, MgCl2, 43.25 mmol/L
  Thermal effect (event): endotherm: −21 °C (endotherm)
[1]; SWFI, MBC-11 25 mg/mL, MgCl2, 43.25 mmol/L + Mannitol, 25 mg/mL
  Thermal effect (event): possible crystallization: −27 °C
[1]; SWFI, MBC-11 25 mg/mL, MgCl2, 43.25 mmol/L + Mannitol, 25 mg/mL, Annealing at −20° C.
  Thermal effect (event): specific endothermicity (none crystallization after temperature processing): −22 °C
[1]; SWFI, MBC-11 25 mg/mL, MgCl2, 43.25 mmol/L + Mannitol, 25 mg/mL, Annealing at −24° C.
  Thermal effect (event): weak endothermicity (none crystallization after annealing): −22 °C
[1]; SWFI, MBC-11 25 mg/mL, MgCl2, 86.5 mmol/L
  Thermal effect (event): endothermicity: −26 °C (endothermicity)
[1]; SWFI, MBC-11 25 mg/mL, MgCl2, 86.5 mmol/L + Mannitol, 25 mg/mL
  Thermal effect (event): Tgt/endothermicity before
[1]; SWFI, MBC-11 50 mg/mL, MgCl2, 86.5 mmol/L
  Thermal effect (event): endothermicity: −21 °C (endothermicity)
[1]; SWFI, MBC-11 50 mg/mL, MgCl2, 86.5 mmol/L + Mannitol, 25 mg/mL
  Thermal effect (event): Tgt/endothermicity before
[1]; SWFI, MBC-11 50 mg/mL, MgCl2, 173 mmol/L
  Thermal effect (event): endothermicity: −26 °C (endothermicity)
[1]; SWFI, MBC-11 50 mg/mL, MgCl2, 173 mmol/L + Mannitol, 25 mg/mL
  Thermal effect (event): Tgt/endothermicity before
[1]; SWFI, MBC-11 100 mg/mL, MgCl2, 173 mmol/L
  Thermal effect (event): endothermicity: −22 °C (endothermicity)
[1]; SWFI, MBC-11 100 mg/mL, MgCl2, 350 mmol/L
  Thermal effect (event): endothermicity: −26 °C (endothermicity)
[1]; [3]
  Thermal effect (event): crystallization: −34 °C (crystallization)
  Thermal effect (event): endothermicity: −26 °C (endothermicity)
[1]; Succinate buffer, MBC-11 25 mg/mL, MgCl2, 86.5 mmol/L + Mannitol, 25 mg/mL
  Thermal effect (event): Tgt/endothermicity before
[1]; [4]
  Thermal effect (event): crystallization: −30 °C (crystallization)
  Thermal effect (event): endothermicity: −22 °C (endothermicity)
[2]
  maximum tolerated daily dose: 5 mg/kg
